Test results: patent US20070299098A1, “Therapeutic Agent for Neuropathic Pain” (Japan Science and Technology Agency, priority 2004, published 2007)

Experiments:
[1] = test system: hyperalgesia model induced by complete ligation of the L5/L6 spinal nerves; assay: Thermal stimulation test (plantar thermal stimulation tester), left plantar pain threshold in hyperalgesia model; assay type: in vivo, rats; conditions: for maximum pain threshold following administration (thermal stimulation): thermal stimulation intensity 35, measured 20, 40, 60 min after administration, male rats; for change of pain threshold versus saline control, in words (thermal stimulation): intraperitoneal, effective doses
Protocol: (§1) Use was made of a hyperalgesia model induced by complete ligation of the L5/L6 spinal nerves in five- to seven-week-old male rats as the experimental animals.
(§2) Mechanical stimulation tests were carried out using the Ugo Basile Model 37400 Dynamic Plantar Aesthesiometer, and thermal stimulation tests were carried out using a plantar thermal stimulation tester (Plantar Test 7370, Ugo Basile). The pain thresholds of the feet on each model animal were measured, and the animals were divided into groups having uniform pain thresholds as measured prior to administration on each day of the experiment. In mechanical stimulation, animals for which the model animal foot pain threshold was 8.0 g or more were excluded from the tests. In thermal stimulation, animals for which the pain threshold for the model foot was 10 seconds or more were excluded from the tests.
(§3) The required amount of the test substance was weighed out and dissolved in physiological saline as the medium. A 2 mg/ml solution was prepared as the highest concentration mixture in the low dosage study, and a 24 mg/ml solution was prepared as the highest concentration mixture in the high dosage study. Solutions at the various concentrations were all prepared at the time of use by suitably diluting these highest concentration mixtures.
Using the syringe barrel and needle, a volume of 5 ml/kg was administrated intraperitoneally.
Groups of five male rats (356.7 to 444.0 g) in which the hyperalgesia model had been induced were used.
Groups of five male rats (400.3 to 499.9 g) in which the hyperalgesia model had been induced were used.
Groups of five male rats (324.8 to 399.0 g) in which the hyperalgesia model had been induced were used.
(§4) Groups of five male rats (307.0 to 393.1 g) in which the hyperalgesia model had been induced were used. A plantar thermal stimulation tester set to a thermal stimulation intensity of 35 was used to measure the left plantar pain threshold before naloxonazine administration, and 20 minutes, 40 minutes and 60 minutes after administration.
as §4, with “(365.3” for “(307.0”, “437.2” for “393.1”, “naltrindole” for “naloxonazine”

[2] = test system: hyperalgesia model induced by complete ligation of the L5/L6 spinal nerves; assay: Mechanical stimulation test (Dynamic Plantar Aesthesiometer), left plantar pain threshold in hyperalgesia model; assay type: in vivo, rats; conditions: for maximum pain threshold following administration (mechanical stimulation): measured 20, 40, 60 min after administration, male rats; for change of pain threshold versus saline control, in words (mechanical stimulation): intraperitoneal, effective doses, Dunnett's multiple comparison test
Protocol: as §1, §2, §3
Although the object here is to ascertain the direct effect of the test substance on the spinal cord, because the substance has been confirmed to pass through the blood-brain barrier, intraperitoneal administration, which is a simple method of administration, was employed. Using the syringe barrel and needle, a volume of 5 ml/kg was administrated intraperitoneally.
Groups of five male rats (333.7 to 414.2 g) in which the hyperalgesia model had been induced were used.
Groups of five male rats (372.0 to 459.5 g) in which the hyperalgesia model had been induced were used.
Groups of five male rats (295.6 to 356.6 g) in which the hyperalgesia model had been induced were used. […]

[3] = high dose study, 30-120 mg/kg intraperitoneal

| SMILES | maximum pain threshold following administration (thermal stimulation) ([1]; 0.3 mg/kg intraperitoneal) [s] | maximum pain threshold following administration (thermal stimulation) ([1]; 3 mg/kg intraperitoneal) [s] | maximum pain threshold following administration (thermal stimulation) ([1]; 30 mg/kg intraperitoneal) [s] | change of pain threshold versus saline control, in words (thermal stimulation) [1] | maximum pain threshold following administration (mechanical stimulation) ([2]; 0.3 mg/kg intraperitoneal) [g] | maximum pain threshold following administration (mechanical stimulation) ([2]; 3 mg/kg intraperitoneal) [g] | maximum pain threshold following administration (mechanical stimulation) ([2]; 30 mg/kg intraperitoneal) [g] | change of pain threshold versus saline control, in words (mechanical stimulation) [2] | maximum pain threshold following administration (thermal stimulation) ([1]; 0.1 mg/kg intraperitoneal) [s] | maximum pain threshold following administration (thermal stimulation) ([1]; 1 mg/kg intraperitoneal) [s] | maximum pain threshold following administration (thermal stimulation) ([1]; 120 mg/kg intraperitoneal) [s] | dose at which the analgesic effect reached its peak (thermal stimulation) [1, 3] [mg/kg] | maximum pain threshold following administration (mechanical stimulation) ([2]; 0.1 mg/kg intraperitoneal) [g] | maximum pain threshold following administration (mechanical stimulation) ([2]; 1 mg/kg intraperitoneal) [g] | maximum pain threshold following administration (mechanical stimulation) ([2]; 10 mg/kg intraperitoneal) [g] | maximum pain threshold following administration (mechanical stimulation) ([2]; 60 mg/kg intraperitoneal) [g] | maximum pain threshold following administration (mechanical stimulation) ([2]; 120 mg/kg intraperitoneal) [g] | dose at which the analgesic effect reached its peak (mechanical stimulation) [2, 3] [mg/kg] |
| --- | --- | --- | --- | --- | --- | --- | --- | --- | --- | --- | --- | --- | --- | --- | --- | --- | --- | --- |
| C=CCN1CC[C@]23c4c5ccc(O)c4O[C@H]2/C(=N/N=C2\CC[C@@]4(O)[C@H]6Cc7ccc(O)c8c7[C@@]4(CCN6CC=C)[C@H]2O8)CC[C@@]3(O)[C@H]1C5 [naloxonazine] | 6.9 | 7.9 | 12.3 | rose significantly with the administration of 30 mg/kg | 4.9 | 8.6 | 14.5 | rose significantly with the administration of 3 and 30 mg/kg | – | – | – | – | – | – | – | – | – | – |
| C=CCN1CC[C@]23c4c5ccc(O)c4O[C@H]2C(=O)CC[C@@]3(O)[C@H]1C5 [naloxone] | – | – | – | rose significantly with the administration of 10 mg | – | – | 10.4 | rose significantly with the administration of 1 mg and 10 mg | 7.2 | 9.2 | 23.8 | 30 | 5.8 | 7.7 | 9.5 | 10.6 | 10.3 | 60 |
| O=C1CC[C@@]2(O)[C@H]3Cc4ccc(O)c5c4[C@@]2(CCN3CC2CC2)[C@H]1O5 [naltrexone] | 7.7 | – | – | rose significantly with the administration of 3 and 30 mg/kg | 5.1 | 6.7 | 10.1 | rose significantly with the administration of 30 mg/kg | – | – | – | – | – | – | – | – | – | – |
| Oc1ccc2c3c1O[C@H]1c4[nH]c5ccccc5c4C[C@@]4(O)[C@@H](C2)N(CC2CC2)CC[C@]314 [naltrindole] | 7.0 | 9.2 | 9.2 | rose significantly with the administration of 3 and 30 mg/kg | 5.8 | 9.4 | 14.1 | rose significantly with the administration of 3 and 30 mg/kg | – | – | – | – | – | – | – | – | – | – |
